Legend:
Format in all cases: cell-based
PTGER2 (EP2) = biological target: T1, PTGER2 (EP2) (Homo sapiens, UniProt P43116); test: hEP2 b-arrestin assay (PathHunter HEK 293 PTGER2 b-arrestin cells); settings: antagonistic activity, beta-arrestin assay; read-out: hEP2 b-arr IC50
T1 construct: host or cells: HEK 293 (PathHunter PTGER2 b-arrestin cell line)
Outline: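 PathHunter HEK293 cells with ProLink-tagged EP2 and EA-β-arrestin 2 preincubated 15 min at 37 °C with compound (10 μM-2 nM or 1 μM-0.2 nM), then stimulated 120 min with 5 μM PGE2 (EC80). β-gal complementation read by chemiluminescence; IC50 from duplicate dose-response versus DMSO.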

PTGER4 (EP4) = biological target: T2, PTGER4 (EP4) (Homo sapiens, UniProt P35408); test: hEP4 b-arrestin assay (PathHunter HEK 293 PTGER4 b-arrestin cells); settings: antagonistic activity, beta-arrestin assay; read-out: hEP4 b-arr IC50
T2 construct: host or cells: HEK 293 (PathHunter PTGER4 b-arrestin cell line)
Outline: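 PathHunter HEK 293 cells expressing ProLink-tagged human EP4 and EA-β-arrestin 2, seeded 24 h before. Compounds (10 μM–2 nM or 1 μM–0.2 nM) preincubated 15 min at 37 °C, then 20 nM PGE2 (EC80) for 120 min at 37 °C. β-gal complementation luminescence read; IC50 from duplicate dose-response curves versus DMSO control.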

EP4 receptor = biological target: T3, EP4 receptor (Homo sapiens, UniProt P35408); test: hEP4 cAMP assay (BT549 breast cancer cells, HTRF cAMP, PGE2 stimulation); settings: antagonistic activity, PGE2 6 nM (EC80)
T3 construct: BT549 breast cancer cells, express high endogenous EP4 levels and very low EP2 levels; host or cells: BT549 breast cancer cells
Outline: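 BT549 cells, with endogenous EP4 and very low EP2, were preincubated 45 min at room temperature with compound in HBSS/HEPES/BSA buffer with 2 mM IBMX. They were then stimulated 30 min with 6 nM PGE2 (EC80). cAMP was measured by HTRF competitive immunoassay against a calibrator; IC50 from duplicate dose-response as % of DMSO control.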

T1 sequence (P43116 whole entry): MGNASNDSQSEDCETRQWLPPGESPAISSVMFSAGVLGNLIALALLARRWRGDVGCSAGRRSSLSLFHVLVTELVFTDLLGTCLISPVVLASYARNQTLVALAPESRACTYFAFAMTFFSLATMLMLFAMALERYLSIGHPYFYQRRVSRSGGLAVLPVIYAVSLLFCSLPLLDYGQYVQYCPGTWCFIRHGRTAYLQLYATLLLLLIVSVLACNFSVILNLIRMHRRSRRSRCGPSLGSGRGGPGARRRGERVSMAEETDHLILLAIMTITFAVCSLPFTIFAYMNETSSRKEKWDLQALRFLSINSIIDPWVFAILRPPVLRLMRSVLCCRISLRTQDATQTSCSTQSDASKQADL
T2 sequence (P35408 whole entry): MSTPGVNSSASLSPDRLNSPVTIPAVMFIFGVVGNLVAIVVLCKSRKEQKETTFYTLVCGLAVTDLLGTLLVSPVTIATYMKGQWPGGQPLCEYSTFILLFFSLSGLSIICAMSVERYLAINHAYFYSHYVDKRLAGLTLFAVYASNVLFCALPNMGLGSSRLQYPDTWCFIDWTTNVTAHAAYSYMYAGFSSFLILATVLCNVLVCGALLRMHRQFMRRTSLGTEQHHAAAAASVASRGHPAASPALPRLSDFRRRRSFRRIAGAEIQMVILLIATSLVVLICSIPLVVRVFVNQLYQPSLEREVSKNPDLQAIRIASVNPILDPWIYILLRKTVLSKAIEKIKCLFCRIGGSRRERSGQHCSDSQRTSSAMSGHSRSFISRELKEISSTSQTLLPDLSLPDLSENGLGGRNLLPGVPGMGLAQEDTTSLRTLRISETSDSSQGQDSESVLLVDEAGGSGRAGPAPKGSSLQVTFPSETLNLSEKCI
T3 sequence (P35408 whole entry): as above

Row | Compound | IC50 (PTGER2 (EP2)) [nM] | IC50 (PTGER4 (EP4)) [nM] | IC50 (EP4 receptor) [nM]
1 | CSc1cc(-c2cc(NCCc3c(C)sc4c(C)ccc(Cl)c34)ncn2)ccc1C(=O)O [Example 19, 4-{6-[2-(4-Chloro-2,7-dimethyl-benzo[b]thiophen-3-yl)-ethylamino]-pyrimidin-4-yl}-2-methylsulfanyl-benzoic acid] | 12 | 414 | 468
2 | Cc1sc2ccccc2c1CCNc1cc(-c2ccc(C(=O)O)c(SC(C)C)c2)ncn1 [Example 91, 2-Isopropylsulfanyl-4-{6-[2-(2-methyl-benzo[b]thiophen-3-yl)-ethylamino]-pyrimidin-4-yl}-benzoic acid] | 20 | 843 | 539
3 | COc1ccc(F)c2c(CCNc3cc(-c4ccc(C(=O)O)c(OC5CC5)c4)ncn3)c(C)sc12 [Example 84, 2-Cyclopropoxy-4-{6-[2-(4-fluoro-7-methoxy-2-methyl-benzo[b]thiophen-3-yl)-ethylamino]-pyrimidin-4-yl}-benzoic acid] | 21 | 80 | 117
4 | Cc1sc2c(C)cc(F)cc2c1CCNc1cc(-c2ccc(C(=O)O)c(OCCO)c2)ncn1 [Example 86, 4-{6-[2-(5-fluoro-2,7-dimethyl-benzo[b]thiophen-3-yl)-ethylamino]-pyrimidin-4-yl}-2-(2-hydroxy-ethoxy)-benzoic acid] | 19 | 4520 | 289
5 | CSc1cc(-c2cc(NCCc3c(C)sc4ccccc34)ncn2)ccc1C(=O)O [Example 24, 4-{6-[2-(2-Methyl-benzo[b]thiophen-3-yl)-ethylamino]-pyrimidin-4-yl}-2-methylsulfanyl-benzoic acid] | 3 | 3420 | 795
6 | Cc1sc2c(C)cccc2c1CCNc1cc(-c2ccc3c(C(=O)O)coc3c2)ncn1 [Example 76, 6-{6-[2-(2,7-Dimethyl-benzo[b]thiophen-3-yl)-ethylamino]-pyrimidin-4-yl}-benzofuran-3-carboxylic acid] | 10 | 1140 | 523
7 | CCSc1cc(-c2cc(NCCc3c(C)oc4ccccc34)ncn2)ccc1C(=O)O [Example 44, 2-Ethylsulfanyl-4-{6-[2-(2-methyl-benzofuran-3-yl)-ethylamino]-pyrimidin-4-yl}-benzoic acid] | 1 | 1020 | 1380
8 | Cc1sc2c(C)cc(F)cc2c1CCNc1cc(-c2ccc(-c3nc(=O)[nH]o3)cc2)ncn1 [Example 79, 5-(4-{6-[2-(5-Fluoro-2,7-dimethyl-benzo[b]thiophen-3-yl)-ethylamino]-pyrimidin-4-yl}-phenyl)-[1,2,4]oxadiazol-3(2H)-one [tautomeric form: 5-(4-(6-((2-(5-fluoro-2,7-dimethylbenzo[b]thiophen-3-yl)ethyl)amino)pyrimidin-4-yl)phenyl)-[1,2,4]oxadiazol-3-ol]] | 26 | 263 | 91
9 | CCSc1cc(-c2cc(NCCc3c(C)sc4ccccc34)ncn2)ccc1C(=O)O [Example 43, 2-Ethylsulfanyl-4-{6-[2-(2-methyl-benzo[b]thiophen-3-yl)-ethylamino]-pyrimidin-4-yl}-benzoic acid] | 3 | 1080 | 497
10 | CCSc1cc(-c2cc(NCCc3c(C)sc4c(C)cccc34)ncn2)ccc1C(=O)O [Example 42, 4-{6-[2-(2,7-Dimethyl-benzo[b]thiophen-3-yl)-ethylamino]-pyrimidin-4-yl}-2-ethylsulfanyl-benzoic acid] | 4 | 328 | 224

Now from value to compound:

Row | IC50 (PTGER2 (EP2)) [nM] | IC50 (PTGER4 (EP4)) [nM] | IC50 (EP4 receptor) [nM] | Compound
11 | 6 | 12 | 22 | CCOc1cc(-c2cc(NCCc3c(C)oc4c(OC)ccc(F)c34)ncn2)sc1C(=O)O [Example 34, 3-Ethoxy-5-{6-[2-(4-fluoro-7-methoxy-2-methyl-benzofuran-3-yl)-ethylamino]-pyrimidin-4-yl}-thiophene-2-carboxylic acid]
12 | 2 | 16 | 13 | CCOc1cc(-c2cc(NCCc3c(C)sc4c(C)cc(F)cc34)ncn2)sc1C(=O)O [Example 32, 3-Ethoxy-5-{6-[2-(5-fluoro-2,7-dimethyl-benzo[b]thiophen-3-yl)-ethylamino]-pyrimidin-4-yl}-thiophene-2-carboxylic acid]
13 | 15 | 625 | 285 | CCOc1cc(-c2cc(NCCc3c(Cl)sc4c(C)cc(F)cc34)ncn2)ccc1C(=O)O [Example 59, 4-{6-[2-(2-Chloro-5-fluoro-7-methyl-benzo[b]thiophen-3-yl)-ethylamino]-pyrimidin-4-yl}-2-ethoxy-benzoic acid]
14 | 73 | 369 | 635 | CCOc1cc(-c2cc(NCCc3c(C)oc4c(OC)ccc(F)c34)ncn2)ccc1C(=O)O [Example 67, 2-Ethoxy-4-{6-[2-(4-fluoro-7-methoxy-2-methyl-benzofuran-3-yl)-ethylamino]-pyrimidin-4-yl}-benzoic acid]
15 | 11 | 522 | 546 | CCOc1cc(-c2cc(NCCc3c(C)oc4c(C)cc(Cl)cc34)ncn2)ccc1C(=O)O [Example 64, 4-{6-[2-(5-Chloro-2,7-dimethyl-benzofuran-3-yl)-ethylamino]-pyrimidin-4-yl}-2-ethoxy-benzoic acid]
16 | 31 | 50 | 112 | CCOc1cc(-c2cc(NCCc3c(CC)oc4c(C)cc(F)cc34)ncn2)sc1C(=O)O [Example 39, 3-Ethoxy-5-{6-[2-(2-ethyl-5-fluoro-7-methyl-benzofuran-3-yl)-ethylamino]-pyrimidin-4-yl}-thiophene-2-carboxylic acid]
17 | 13 | 47 | 186 | CCOc1cc(-c2cc(NCCc3c(C)sc4c(C)cc(F)cc34)ncn2)ccc1C(=O)O [Example 56, 2-Ethoxy-4-{6-[2-(5-fluoro-2,7-dimethyl-benzo[b]thiophen-3-yl)-ethylamino]-pyrimidin-4-yl}-benzoic acid]
18 | 2 | 42 | 49 | CCOc1cc(-c2cc(NCCc3c(C)oc4c(C)cc(F)cc34)ncn2)sc1C(=O)O [Example 37, 3-Ethoxy-5-{6-[2-(5-fluoro-2,7-dimethyl-benzofuran-3-yl)-ethylamino]-pyrimidin-4-yl}-thiophene-2-carboxylic acid]
19 | 2 | 7 | 1 | CCOc1cc(-c2cc(NCCc3c(C)sc4c(C)ccc(F)c34)ncn2)sc1C(=O)O [Example 25, 3-Ethoxy-5-{6-[2-(4-fluoro-2,7-dimethyl-benzo[b]thiophen-3-yl)-ethylamino]-pyrimidin-4-yl}-thiophene-2-carboxylic acid]
20 | 12 | 454 | 278 | CCOc1cc(-c2cc(NCCc3c(Br)sc4c(C)cc(F)cc34)ncn2)ccc1C(=O)O [Example 58, 4-{6-[2-(2-Bromo-5-fluoro-7-methyl-benzo[b]thiophen-3-yl)-ethylamino]-pyrimidin-4-yl}-2-ethoxy-benzoic acid]
21 | 9 | 12 | 80 | CCOc1cc(-c2cc(NCCc3c(C)oc4c(OC)cc(Cl)cc34)ncn2)sc1C(=O)O [Example 38, 5-{6-[2-(5-Chloro-7-methoxy-2-methyl-benzofuran-3-yl)-ethylamino]-pyrimidin-4-yl}-3-ethoxy-thiophene-2-carboxylic acid]
